Experiments:
[1] = target: T1, Adrenergic receptor alpha-2 (Rattus norvegicus, UniProt P22086+P19328+P22909); assay: Antagonistic activity against alpha-2 adrenergic receptor in rat vas deferens; type: functional, tissue-based
T1 sequence (P22086 whole entry): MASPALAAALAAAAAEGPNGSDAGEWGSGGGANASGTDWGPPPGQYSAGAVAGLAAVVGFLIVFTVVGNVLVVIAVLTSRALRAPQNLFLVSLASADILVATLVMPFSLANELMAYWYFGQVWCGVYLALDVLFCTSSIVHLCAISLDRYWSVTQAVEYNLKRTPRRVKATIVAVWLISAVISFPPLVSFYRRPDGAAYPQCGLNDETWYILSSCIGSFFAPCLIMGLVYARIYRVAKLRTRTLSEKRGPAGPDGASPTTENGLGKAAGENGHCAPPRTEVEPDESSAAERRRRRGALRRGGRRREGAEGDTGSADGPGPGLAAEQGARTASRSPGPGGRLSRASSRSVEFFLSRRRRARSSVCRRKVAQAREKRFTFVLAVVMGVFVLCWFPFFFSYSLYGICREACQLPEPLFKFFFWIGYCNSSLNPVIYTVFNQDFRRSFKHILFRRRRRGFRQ
T1 sequence (P19328 whole entry): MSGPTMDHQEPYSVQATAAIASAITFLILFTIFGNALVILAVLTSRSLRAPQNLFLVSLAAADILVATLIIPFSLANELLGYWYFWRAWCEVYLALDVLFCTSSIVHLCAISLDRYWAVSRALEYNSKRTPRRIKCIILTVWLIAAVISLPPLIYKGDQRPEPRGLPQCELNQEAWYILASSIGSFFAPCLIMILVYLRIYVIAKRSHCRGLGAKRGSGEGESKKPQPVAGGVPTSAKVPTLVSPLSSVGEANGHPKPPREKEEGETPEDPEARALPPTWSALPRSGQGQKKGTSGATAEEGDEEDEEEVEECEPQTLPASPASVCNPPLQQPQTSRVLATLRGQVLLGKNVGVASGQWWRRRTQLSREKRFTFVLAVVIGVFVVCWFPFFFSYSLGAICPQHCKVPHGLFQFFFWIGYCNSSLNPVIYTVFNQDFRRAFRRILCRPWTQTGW
T1 sequence (P22909 whole entry): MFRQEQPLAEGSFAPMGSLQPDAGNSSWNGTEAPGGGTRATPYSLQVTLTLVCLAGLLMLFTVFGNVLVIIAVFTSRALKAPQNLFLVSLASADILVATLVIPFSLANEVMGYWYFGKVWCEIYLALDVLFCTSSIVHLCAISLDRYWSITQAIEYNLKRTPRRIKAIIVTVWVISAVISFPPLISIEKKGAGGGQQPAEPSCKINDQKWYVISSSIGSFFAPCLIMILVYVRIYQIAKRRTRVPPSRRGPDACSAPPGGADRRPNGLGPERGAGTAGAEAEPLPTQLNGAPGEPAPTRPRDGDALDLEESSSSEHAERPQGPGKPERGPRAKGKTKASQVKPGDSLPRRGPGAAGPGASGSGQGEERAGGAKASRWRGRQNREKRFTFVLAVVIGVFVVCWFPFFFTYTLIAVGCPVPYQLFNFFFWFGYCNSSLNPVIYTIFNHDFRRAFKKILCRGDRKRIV

[2] = target: T2, Adrenergic receptor alpha-1 (Rattus norvegicus, UniProt P15823+P23944+P43140); assay: Antagonistic activity against alpha-1 adrenergic receptor in isolated rat anococcygeus muscle; type: functional, tissue-based
T2 sequence (P15823 whole entry): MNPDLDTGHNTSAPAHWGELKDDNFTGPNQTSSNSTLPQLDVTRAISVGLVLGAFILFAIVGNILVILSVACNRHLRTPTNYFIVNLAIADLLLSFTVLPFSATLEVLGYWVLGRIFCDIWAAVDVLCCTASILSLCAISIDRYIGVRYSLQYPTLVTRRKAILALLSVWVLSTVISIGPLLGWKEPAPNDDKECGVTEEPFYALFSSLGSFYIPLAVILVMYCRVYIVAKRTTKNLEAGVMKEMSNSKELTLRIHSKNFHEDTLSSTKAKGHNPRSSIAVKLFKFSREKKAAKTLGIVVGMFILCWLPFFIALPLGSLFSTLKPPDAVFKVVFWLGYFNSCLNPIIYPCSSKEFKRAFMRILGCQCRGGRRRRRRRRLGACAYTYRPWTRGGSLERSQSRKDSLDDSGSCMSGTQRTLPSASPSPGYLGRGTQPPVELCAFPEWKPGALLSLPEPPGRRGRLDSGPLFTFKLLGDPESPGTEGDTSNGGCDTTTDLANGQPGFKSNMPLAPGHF
T2 sequence (P23944 whole entry): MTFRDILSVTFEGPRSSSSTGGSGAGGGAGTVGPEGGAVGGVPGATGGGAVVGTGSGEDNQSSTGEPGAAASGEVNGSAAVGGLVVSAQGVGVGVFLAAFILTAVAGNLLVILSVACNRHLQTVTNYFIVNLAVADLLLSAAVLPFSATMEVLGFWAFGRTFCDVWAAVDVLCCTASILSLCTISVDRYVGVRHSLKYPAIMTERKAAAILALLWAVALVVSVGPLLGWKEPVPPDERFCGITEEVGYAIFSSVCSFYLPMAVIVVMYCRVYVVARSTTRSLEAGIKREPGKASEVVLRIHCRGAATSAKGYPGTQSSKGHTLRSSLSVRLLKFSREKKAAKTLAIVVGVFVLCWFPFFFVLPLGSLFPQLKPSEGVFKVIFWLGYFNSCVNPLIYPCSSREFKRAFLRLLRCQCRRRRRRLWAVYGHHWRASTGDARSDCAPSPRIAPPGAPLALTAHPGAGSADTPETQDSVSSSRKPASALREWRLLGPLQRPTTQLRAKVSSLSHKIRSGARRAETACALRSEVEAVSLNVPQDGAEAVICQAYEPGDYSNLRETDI
T2 sequence (P43140 whole entry): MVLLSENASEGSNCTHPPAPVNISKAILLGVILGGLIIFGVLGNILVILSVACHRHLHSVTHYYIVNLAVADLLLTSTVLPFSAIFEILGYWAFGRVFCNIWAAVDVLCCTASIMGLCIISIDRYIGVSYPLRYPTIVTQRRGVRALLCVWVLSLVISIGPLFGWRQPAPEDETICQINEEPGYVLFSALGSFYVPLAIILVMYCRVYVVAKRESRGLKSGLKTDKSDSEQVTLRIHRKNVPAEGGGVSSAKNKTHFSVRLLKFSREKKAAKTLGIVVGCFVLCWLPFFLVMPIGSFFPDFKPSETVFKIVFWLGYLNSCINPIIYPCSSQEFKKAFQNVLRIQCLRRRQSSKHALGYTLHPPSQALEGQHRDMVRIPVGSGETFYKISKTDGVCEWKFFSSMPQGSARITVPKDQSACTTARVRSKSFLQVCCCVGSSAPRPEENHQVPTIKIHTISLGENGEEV

| pA2 [1] | pA2 [2] | Structure (SMILES) |
| --- | --- | --- |
| < 5 | 5.2 | CC(C)CS(=O)(=O)N(C)[C@H]1CCN2CCc3ccccc3[C@H]2C1 |
| 7.7 | 6.17 | CCS(=O)(=O)N(C)[C@@H]1CCN2CCc3ccccc3[C@@H]2C1 |
| < 5 | 5.3 | CN([C@H]1CCN2CCc3ccccc3[C@H]2C1)S(C)(=O)=O |
| 7.44 | 6.19 | CNS(=O)(=O)N(C)[C@@H]1CCN2CCc3ccccc3[C@@H]2C1 |
| 7.1 | 5.7 | CN([C@@H]1CCN2CCc3ccccc3[C@@H]2C1)S(N)(=O)=O |
| 7.1 | 5.8 | CCCS(=O)(=O)N(C)[C@H]1CCN2CCc3ccccc3[C@H]2C1 |
| 7.74 | 6.8 | CCCCCS(=O)(=O)N(C)[C@@H]1CCN2CCc3ccccc3[C@@H]2C1 |
| 7.7 | 6.7 | CN([C@@H]1CCN2CCc3ccccc3[C@@H]2C1)S(=O)(=O)CC1CC1 |
| 7.56 | 5.93 | CN([C@@H]1CCN2CCc3ccccc3[C@@H]2C1)S(=O)(=O)CC(F)(F)F |
| 7.15 | 5.49 | CN([C@@H]1CCN2CCc3ccccc3[C@@H]2C1)S(=O)(=O)C(F)(F)F |
| 8.11 | 6.5 | CN([C@@H]1CCN2CCc3ccccc3[C@@H]2C1)S(=O)(=O)CC(C)(C)C |
| 5.7 | – | CN([C@@H]1CCN2CCc3ccccc3C2C1)S(C)(=O)=O (stereo partly specified) |

Further lines, the molecule ahead of its results:

| Structure (SMILES) | pA2 [1] | pA2 [2] |
| --- | --- | --- |
| CN([C@@H]1CCN2CCc3ccccc3[C@@H]2C1)S(=O)(=O)c1ccccc1 | 8.44 | 7.05 |
| Cc1ccccc1S(=O)(=O)N(C)[C@@H]1CCN2CCc3ccccc3[C@@H]2C1 | 7.87 | 6.27 |
| CN(C)S(=O)(=O)N(C)[C@@H]1CCN2CCc3ccccc3[C@@H]2C1 | 7.4 | 5.95 |
| CN([C@@H]1CCN2CCc3ccccc3[C@@H]2C1)S(=O)(=O)c1ccc(Cl)cc1 | 7.6 | 6.09 |
| CN([C@@H]1CCN2CCc3ccccc3[C@@H]2C1)S(=O)(=O)N1CCCC1 | 8.1 | 6.7 |
| CN([C@@H]1CCN2CCc3ccccc3[C@@H]2C1)S(=O)(=O)c1ccsc1 | 7.94 | 6.65 |
| CC(C)CS(=O)(=O)N[C@@H]1CCN2CCc3ccccc3[C@@H]2C1 | 6.34 | 6.55 |
| CCN([C@@H]1CCN2CCc3ccccc3[C@@H]2C1)S(C)(=O)=O | 7.39 | 6.61 |
| CN([C@@H]1CCN2CCc3ccccc3[C@@H]2C1)S(=O)(=O)c1cccc2ccccc12 | 8.06 | 7.1 |
| CC(C)COC(=O)N(C)[C@@H]1CCN2CCc3ccccc3[C@@H]2C1 | – | 7 |
| Cc1ccc(S(=O)(=O)N(C)[C@@H]2CCN3CCc4ccccc4[C@@H]3C2)cc1 | 8.1 | 6.84 |
| CCCCCCCCCCCCS(=O)(=O)N(C)[C@@H]1CCN2CCc3ccccc3[C@@H]2C1 | < 5 | – |
| CN([C@@H]1CCN2CCc3ccccc3[C@@H]2C1)S(=O)(=O)c1cccc2cccnc12 | 8.46 | 6.84 |
| CN([C@@H]1CCN2CCc3ccccc3[C@@H]2C1)S(=O)(=O)c1cccnc1 | 8.22 | 6.73 |
| COC(=O)N(C)[C@@H]1CCN2CCc3ccccc3[C@@H]2C1 | – | 6.56 |
| CCOC(=O)N(C)[C@@H]1CCN2CCc3ccccc3[C@@H]2C1 | – | 6.93 |
| CN([C@@H]1CCN2CCc3ccccc3[C@@H]2C1)S(=O)(=O)CCN1CCCCC1 | 7.5 | 6.11 |
| CCCN([C@@H]1CCN2CCc3ccccc3[C@@H]2C1)S(C)(=O)=O | 6.77 | 6.44 |
| COP(=O)(OC)N(C)[C@@H]1CCN2CCc3ccccc3[C@@H]2C1 | 6.63 | – |
